Laboratory results as given in ChEMBL document CHEMBL4706752 (ACS Med Chem Lett, 2021).
pEC50, pIC50: −log10 of the molar value. The source made the active and inactive calls. No cut-off for these calls is given here.

Key:
[1] = Metabolic stability in human liver microsomes assessed as compound remaining after 10 mins; assay type: ADME, Microsome; details: read-out: Stabilty
[2] = Protein binding in human serum assessed as fraction unbound; assay type: ADME, cell-free; details: read-out: PB
[3] = Protein binding in mouse serum assessed as fraction unbound; assay type: ADME, cell-free; details: read-out: PB
Cytochrome P450 2C8 = biological target: T1, Cytochrome P450 2C8 (Homo sapiens, UniProt P10632); experiment: Inhibition of CYP2C8 (unknown origin); assay type: ADME
T1 sequence (P10632 whole entry): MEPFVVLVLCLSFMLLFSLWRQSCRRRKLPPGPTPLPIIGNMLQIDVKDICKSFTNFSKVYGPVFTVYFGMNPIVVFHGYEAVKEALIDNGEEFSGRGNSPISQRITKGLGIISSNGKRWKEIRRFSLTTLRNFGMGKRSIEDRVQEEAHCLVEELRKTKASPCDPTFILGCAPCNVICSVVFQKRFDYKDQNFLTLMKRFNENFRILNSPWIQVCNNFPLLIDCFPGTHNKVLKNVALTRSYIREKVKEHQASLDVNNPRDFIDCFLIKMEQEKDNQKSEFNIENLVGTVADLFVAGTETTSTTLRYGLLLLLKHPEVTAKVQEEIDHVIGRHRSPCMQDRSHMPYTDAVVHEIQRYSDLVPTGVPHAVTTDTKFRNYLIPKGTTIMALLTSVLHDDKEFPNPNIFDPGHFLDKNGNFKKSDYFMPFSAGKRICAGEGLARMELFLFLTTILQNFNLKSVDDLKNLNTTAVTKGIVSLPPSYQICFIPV

Cytochrome P450 2C9 = Cytochrome P450 2C9 (Homo sapiens, UniProt P11712); experiment: Inhibition of CYP2C9 (unknown origin); assay type: ADME
[4] = Clearance in Sprague-Dawley rat at 2 mg/kg, iv; assay type: ADME, organism-based; details: in vivo
[5] = Clearance in dog at 1 mg/kg, iv; assay type: ADME, organism-based, Canis lupus familiaris; details: in vivo
[6] = Clearance in cynomolgus monkey at 1 mg/kg, iv; assay type: ADME, organism-based, Macaca fascicularis; details: in vivo
[7] = Unbound volume of distribution at steady state in dog at 1 mg/kg, iv; assay type: ADME, organism-based, Canis lupus familiaris; details: in vivo
[8] = Half life in Sprague-Dawley rat at 2 mg/kg, iv; assay type: ADME, organism-based; details: in vivo
[9] = Half life in dog at 1 mg/kg, iv; assay type: ADME, organism-based, Canis lupus familiaris; details: in vivo
[10] = AUC in Sprague-Dawley rat at 2 mg/kg, iv; assay type: ADME, organism-based; set-up: dose 2 mg/kg; details: in vivo
[11] = AUC in dog at 1 mg/kg, iv; assay type: ADME, organism-based, Canis lupus familiaris; set-up: dose 1 mg/kg; details: in vivo
[12] = AUC in cynomolgus monkey at 1 mg/kg, iv; assay type: ADME, organism-based, Macaca fascicularis; set-up: dose 1 mg/kg; details: in vivo
[13] = Tmax in Sprague-Dawley rat at 4 mg/kg, po; assay type: ADME, organism-based; details: in vivo
[14] = Tmax in cynomolgus monkey at 2 mg/kg, po; assay type: ADME, organism-based, Macaca fascicularis; details: in vivo
[15] = Cmax in cynomolgus monkey at 2 mg/kg, po; assay type: ADME, organism-based, Macaca fascicularis; set-up: route oral, dose 2 mg/kg; details: in vivo
[16] = AUC in Balb/c mouse at 4 mg/kg, po; assay type: ADME, organism-based; set-up: dose 4 mg/kg; details: in vivo
[17] = AUC in Sprague-Dawley rat at 4 mg/kg, po; assay type: ADME, organism-based; set-up: dose 4 mg/kg; details: in vivo
[18] = AUC in dog at 2 mg/kg, po; assay type: ADME, organism-based, Canis lupus familiaris; set-up: dose 2 mg/kg; details: in vivo
[19] = AUC in cynomolgus monkey at 2 mg/kg, po; assay type: ADME, organism-based, Macaca fascicularis; set-up: dose 2 mg/kg; details: in vivo
[20] = Oral bioavailability in Balb/c mouse at 4 mg/kg; assay type: ADME, organism-based; details: in vivo
[21] = Oral bioavailability in Sprague-Dawley rat at 4 mg/kg; assay type: ADME, organism-based; details: in vivo
[22] = Oral bioavailability in dog at 2 mg/kg; assay type: ADME, organism-based, Canis lupus familiaris; details: in vivo
Mus musculus [23] = experiment: Suppression of ear thickness in C57BL/6 mouse model of IL-23 induced acanthosis model of psoriasis assessed as AUC of %change in ear thickness at 5 mg/kg, po BID for 10 days measured every other day; assay type: functional; details: time 10 day
Mus musculus [24] = experiment: Antiinflammatory activity in DBA/1J mouse model of collagen-induced arthritis assessed as reduction in plasma IL-6 level at 5 mg/kg, po dosed twice daily for 21 days (reference value: 80 +/- 6 pg/ml); assay type: functional; details: time 21 day
Mus musculus [25] = experiment: Antiinflammatory activity in DBA/1J mouse model of collagen-induced arthritis assessed as reduction in plasma IL-6 level at 20 mg/kg, po dosed twice daily for 21 days (reference value: 80 +/- 6 pg/ml); assay type: functional; details: time 21 day
Mus musculus [26] = experiment: Antiinflammatory activity in DBA/1J mouse model of collagen-induced arthritis assessed as reduction in Anti-CII Ab level at 5 to 20 mg/kg, po dosed twice daily for 21 days; assay type: functional, organism-based; details: dose 5-20 mg/kg, time 21.0 day
[27] = Decrease in IL-6 gene expression in C57BL/6 mouse model of IL-23 induced acanthosis model of psoriasis at 5 mg/kg, po BID for 10 days by RT-PCR analysis; assay type: functional; details: C57BL/6, po, 240 h, time 10 day
[28] = Decrease in IL-6 gene expression in C57BL/6 mouse model of IL-23 induced acanthosis model of psoriasis at 10 mg/kg, po BID for 10 days by RT-PCR analysis; assay type: functional; details: C57BL/6, po, 240 h, time 10 day
[29] = Decrease in IL-6 gene expression in C57BL/6 mouse model of IL-23 induced acanthosis model of psoriasis at 20 mg/kg, po BID for 10 days by RT-PCR analysis; assay type: functional; details: C57BL/6, po, 240 h, time 10 day
[30] = Decrease in LCN2 gene expression in C57BL/6 mouse model of IL-23 induced acanthosis model of psoriasis at 5 mg/kg, po BID for 10 days by RT-PCR analysis; assay type: functional; details: C57BL/6, po, 240 h, time 10 day
[31] = biological target: T2, Nuclear receptor ROR-alpha (Homo sapiens, UniProt P35398); experiment: Inhibition of RORalpha (unknown origin)
T2 sequence (P35398 whole entry): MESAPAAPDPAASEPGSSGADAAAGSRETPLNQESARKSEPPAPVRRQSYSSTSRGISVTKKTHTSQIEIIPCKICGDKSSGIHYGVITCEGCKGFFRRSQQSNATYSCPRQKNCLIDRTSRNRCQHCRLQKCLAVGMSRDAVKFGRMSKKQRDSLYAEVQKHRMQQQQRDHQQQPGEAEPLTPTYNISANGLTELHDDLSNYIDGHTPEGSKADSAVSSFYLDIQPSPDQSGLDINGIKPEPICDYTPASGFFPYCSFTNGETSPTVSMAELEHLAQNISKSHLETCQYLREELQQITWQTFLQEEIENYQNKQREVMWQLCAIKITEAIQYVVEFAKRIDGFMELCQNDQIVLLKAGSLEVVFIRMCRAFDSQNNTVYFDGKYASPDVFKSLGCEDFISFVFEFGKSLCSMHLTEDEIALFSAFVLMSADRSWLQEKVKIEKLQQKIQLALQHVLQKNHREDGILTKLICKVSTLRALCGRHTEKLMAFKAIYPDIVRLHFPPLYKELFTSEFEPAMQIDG

Mus musculus [32] = experiment: Antiinflammatory activity in DBA/1J mouse model of collagen-induced arthritis assessed as reduction in clinical score at 5 mg/kg, po dosed twice daily for 21 days measured on day 51; assay type: functional; details: 504 h, time 21 day
Mus musculus [33] = experiment: Antiinflammatory activity in DBA/1J mouse model of collagen-induced arthritis assessed as reduction in clinical score at 10 mg/kg, po dosed twice daily for 21 days measured on day 51; assay type: functional; details: 504 h, time 21 day
Mus musculus [34] = experiment: Antiinflammatory activity in DBA/1J mouse model of collagen-induced arthritis assessed as reduction in clinical score at 20 mg/kg, po dosed twice daily for 21 days measured on day 51; assay type: functional; details: 504 h, time 21 day

Sequence of Cytochrome P450 2C9 (P11712 whole entry): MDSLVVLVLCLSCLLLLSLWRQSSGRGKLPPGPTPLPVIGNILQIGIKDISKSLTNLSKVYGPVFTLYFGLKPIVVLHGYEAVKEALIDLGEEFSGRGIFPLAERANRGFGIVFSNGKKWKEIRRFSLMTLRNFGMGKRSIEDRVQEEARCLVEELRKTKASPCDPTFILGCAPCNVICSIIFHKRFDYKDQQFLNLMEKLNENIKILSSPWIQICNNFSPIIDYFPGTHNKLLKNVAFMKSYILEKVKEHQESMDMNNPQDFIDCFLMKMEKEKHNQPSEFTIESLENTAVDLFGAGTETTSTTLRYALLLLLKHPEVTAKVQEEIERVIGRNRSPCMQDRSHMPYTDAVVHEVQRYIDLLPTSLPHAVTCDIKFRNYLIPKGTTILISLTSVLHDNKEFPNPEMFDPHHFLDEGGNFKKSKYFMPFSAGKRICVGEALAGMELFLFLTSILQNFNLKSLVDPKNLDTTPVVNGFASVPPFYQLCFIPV

- remaining at 10 min [1]: 89%
- fraction unbound [2]: 0.022
- fraction unbound [3]: 0.015
- pIC50 (Cytochrome P450 2C8): 5.12
- pIC50 (Cytochrome P450 2C9): < 4.70
- clearance [4]: 1.9 mL/min/kg
- clearance [5]: 0.22 mL/min/kg
- clearance [6]: 2.8 mL/min/kg
- fVdss [7]: 1.3 L/kg
- half-life [8]: 13 h
- half-life [9]: 67 h
- AUC [10]: 26.3 µM·h
- AUC [11]: 114 µM·h
- AUC [12]: 9 µM·h
- Tmax [13]: 4 h
- Tmax [14]: 7 h
- Cmax [15]: 600 nM
- AUC [16]: 45.9 µM·h
- AUC [17]: 44.9 µM·h
- AUC [18]: 163 µM·h
- AUC [19]: 13.2 µM·h
- bioavailability [20]: 101%
- bioavailability [21]: 85%
- bioavailability [22]: 72%
- pEC50 [31]: < 5.00
Compound: C[C@@](O)(CS(C)(=O)=O)C(=O)N[C@@H]1CC[C@@]2(S(=O)(=O)c3ccc(F)cc3)c3ccc(C(F)(C(F)(F)F)C(F)(F)F)nc3CC[C@@H]12
- Activity (Mus musculus [23]): 34.4%
- Activity (Mus musculus [24]): 26 pg/mL
- Activity (Mus musculus [25]): 19 pg/mL
- Activity (Mus musculus [26]): Active
- inhibition in vivo at 5 mg/kg [27]: 55.8%
- inhibition in vivo at 10 mg/kg [28]: 82.3%
- inhibition in vivo at 20 mg/kg [29]: 77.4%
- inhibition in vivo at 5 mg/kg [30]: 62.4%
- inhibition in vivo at 5 mg/kg (Mus musculus [32]): 48%
- inhibition in vivo at 10 mg/kg (Mus musculus [33]): 64%
- inhibition in vivo at 20 mg/kg (Mus musculus [34]): 78%
